Earlier results, collected in patent US20120302647A1, “SYNTHESIS OF MAGNOLOL AND ITS ANALOGUE COMPOUNDS” (INDIAN INSTITUTE OF CHEMICAL TECHNOLOGY, priority 2010, published 2012).

Key:
[1] = system: cortical neuron-astrocyte mixed cultures; settings: chemical hypoxia by KCN
[2] = times greater than α-tocopherol

C=CCc1ccc(O)c(-c2cc(CC=C)ccc2O)c1 [magnolol, 5,5′-diallylbiphenyl-2,2′-diol]
protection of neurons against chemical hypoxia [1]: protects neurons against chemical hypoxia by KCN | protection of the myocardium against infarction and reperfusion injury (myocardium): protecting the myocardium against infarction and reperfusion injury | antioxidant activity relative to α-tocopherol [2]: 1000 times
